According to patent US3935313A, “Pharmaceutical composition containing N-(3-diethyl-aminopropyl)-4-nitro-1-oxide-pyridine-2-carboxamide and process for the treatment of hypertension therewith” (Aron-Samuel; Jan Marcel Didier, priority 1971, dated 1976):

Assays:
[1] = Acute toxicity (method of Lichtfield and Wilcoxon); conditions: in vivo
Text: The compound used for such tests is the hydrochloride (LA 2511).

[2] = Chronic toxicity, 6 months, Rhesus monkeys; assay type: in vivo; conditions: up to maximum dose tested 400 mg/kg
[3] = Chronic toxicity, 6 months, rats; assay type: in vivo; conditions: up to maximum dose tested 400 mg/kg
[4] = Teratogenicity in rats; assay type: in vivo; conditions: 600 mg/kg
[5] = Teratogenicity in rabbits; assay type: in vivo; conditions: 200 mg/kg
[6] = test system: dogs made hypertensive by the bilateral destruction of the sensory endings of the sino-carotid area; assay: Anti-hypertensive effect in dogs with destroyed sino-carotid sensory endings; assay type: in vivo
Text: (§1) The anti-hypertensive effect was investigated:
1. in dogs made hypertensive by the bilateral destruction of the sensory endings of the sino-carotid area;

[7] = test system: rats made hypertensive by implantation of two 25 mg deoxycorticosterone pellets combined with a sodium enriched diet; assay: Anti-hypertensive effect in deoxycorticosterone/sodium hypertensive rats; assay type: in vivo
Protocol: as §1
2. in rats made hypertensive by implantation of two 25 mg deoxycorticosterone pellets combined with a sodium enriched diet;

[8] = test system: rats made hypertensive according to Goldblatt's method; assay: Anti-hypertensive effect in Goldblatt hypertensive rats; assay type: in vivo
Text: as §1
3. in rats made hypertensive according to Goldblatt's method (unilateral renal arterial constriction with contralateral nephrectomy).

[9] = test system: normotensive subjects; assay: Effects in normotensive subjects; assay type: in vivo, Man
Protocol: Prior to the therapeutic tests, toxicological and clinical pharmacological investigations were conducted in normotensive Man. […] The systolic pressure is depressed by 2 to 4 cm of mercury, while the diastolic pressure is depressed by 2 cm, on the average.
Dosage of compound administered: 1 tablet containing 400 mg active ingredient during 1 week, 2 tablets during 1 week, 3 tablets during 3 weeks.
Dosage of compound administered: 1 tablets containing 400 mg active ingredient during 3 weeks, 2 tablets during the 5 following weeks.

[10] = test system: patients with true hypertension; assay: Clinical experimentation involving 22 hospital patients; assay type: in vivo, Man; conditions: of 22 patients; criteria: systolic L1, diastolic L2
Protocol: Clinical experimentation involving 22 hospital patients.
Procedure: The patients selected suffer from true hypertension involving both systolic pressure and diastolic pressure. Before starting treatment with the compound, it was ascertained, during a period of time of 8 days, in the absence of any hypotensive treatment, that this hypertension was stable in the morning, at noon and in the evening, in standing, sitting and recumbent positions.
1. Effect on blood pressure: the result was evaluated on the basis of the blood pressure depression, expressed as cm of mercury, according to the following criteria: Result Nil Fair Good Very good __________________________________________________________________________ Systolic pressure depression 0 < 3 cm 3-4 cm > 4 cm Diastolic pressure depression 0 <1.5 cm 1.5-2 cm >2 cm __________________________________________________________________________
2. Effect on functional signs: headaches, dizziness, floating specks, ear buzzing.

[11] = test system: hypertensive subjects; assay: Treatment of hypertensive subjects with the compound in combination with other anti-hypertensive materials; assay type: in vivo, Man
Protocol: Combinations of the compound of this invention with other anti-hypertensiveagents were also investigated.
The most important combination is that with diuretic drugs, as predicted from the efficiency data provided by the pharmacological investigation. A reduction of the dosage of compound of about 50% and/or a three-fold duration of the action are obtained.
Dosage of compound administered: 5 tablets containing 400 mg active compound daily during 30 days. Associated treatment: salt-free diet, potassium chloride, furosemide: one 40 mg tablet, 3 times a week.
Dosage of compound administered: 5 tablets containing 400 mg active material, daily during 30 days. Associated treatment: potassium chloride, altizide: 15 mg; spironolactone: 25 mg.
Treatment during one month with the compound of this invention: 4 tablets daily, containing each 400 mg active ingredient, taken two at a time, plus 4 tablets daily of α-methyl dopa, containing each 250 mg active ingredient, taken two at a time.

[12] = test system: hypertensive subjects; assay: Therapeutic effects in hypertensive subjects, compound alone
Procedure: About a hundred patients were treated with the compound during several months.
The compound was tested alone at dosages from 300 mg to 5 g daily. […] The results just set forth relate to determinations made with the patients in a recumbent position.

[13] = test system: hypertensive subjects; assay: Treatment of a hypertensive patient with α-methyldopa alone; assay type: in vivo, Man; conditions: TRU... Yves
Protocol: Strong functional signs (headaches, dizziness). Treated during one month with α-methyldopa: 2, then 4, then 6 tablets per day, containing each 250 mg active ingredient.

[14] = oral, 200 mg to 5 g daily, normotensive
[15] = GAU... Albert, 5 x 400 mg daily 30 days + altizide 15 mg, spironolactone 25 mg, potassium chloride, prior 21/13
[16] = GAU... Albert, + altizide, spironolactone
[17] = SUF... Auguste, 5 x 400 mg daily 30 days + furosemide 40 mg 3 times a week, potassium chloride, salt-free diet, prior 24/12
[18] = TRU... Yves, 4 x 400 mg daily + α-methyldopa 4 x 250 mg daily, one month, after α-methyldopa alone 21/111/2
[19] = combination with diuretic drugs
[20] = fraction of subjects, alone, 300 mg to 5 g daily, recumbent
[21] = more than half the subjects, alone, 300 mg to 5 g daily, recumbent
[22] = one-fourth of the patients, alone, 300 mg to 5 g daily, recumbent
[23] = use as anti-hypertensive material in Man

## CCN(CC)CCCNC(=O)c1cc([N+](=O)[O-])cc[n+]1[O-] [LA 2511, N-(3-diethylaminopropyl)-4-nitro-1-oxide-pyridine-2-carboxamide]
[1]
  LD50: 2000 mg/kg
[2]
  toxic effect on chronic treatment: no toxic effect
[3]
  toxic effect on chronic treatment: no toxic effect
[4]
  teratogenic effect: No teratogenic effect
[5]
  teratogenic effect: No teratogenic effect
[6]; in combination with diuretics, stated for the experimental hypertension models together
  anti-hypertensive efficiency in combination with diuretics: efficiency is extended
[6]; sino-carotid denervated hypertensive dogs
  anti-hypertensive efficiency: substantial consistent efficiency
[7]
  anti-hypertensive efficiency: substantial consistent efficiency
[8]
  anti-hypertensive efficiency: substantial consistent efficiency
[9]; CHA... Paul, 400 mg tablets, 1 for 3 weeks, 2 for 5 weeks, initial 13/8
  blood pressure after treatment, recumbent, evening: 11/6
[9]; CHA... Paul, 400 mg tablets, 1 for 3 weeks, 2 for 5 weeks, initial 14/8
  blood pressure after treatment, recumbent, morning: 12/6
[9]; CHA... Paul, 8 weeks
  tolerance: Excellent tolerance
[9]; VUI... Robert, 5 weeks
  tolerance: Excellent tolerance
[9]; [14]
  depression of the blood pressure: moderate gradual depression
  influence on the heart: No deleterious influence
  systolic pressure depression: 2 to 4 cm of mercury
[9]; oral, 200 mg to 5 g daily, normotensive, on the average
  diastolic pressure depression: 2 cm
[9]; oral, 200 mg to 5 g daily, normotensive, orthostatic
  depression of blood pressure under orthostatic conditions: more substantial depression
[9]; oral, 200 mg to 5 g daily, blood count, sedimentation rate, phosphatases, transaminases, azotemia, glycemia, creatinine clearance, ions, lipids etc.
  modifications in the electrocardiogram and numerous biological tests: No modifications were ever noted
[10]
  number of "fair" results: 5 results
  number of "good" and "very good" results: 13 results
  number of "nil" results: 4 results
[11]; GAU... Albert, 5 x 400 mg daily 30 days + altizide 15 mg, spironolactone 25 mg, potassium chloride, prior 20/121/2
  blood pressure after treatment, standing: 14/9
[11]; [15]
  blood pressure after treatment, recumbent: 16/10
  blood pressure after treatment, sitting: 16/10
[11]; [16]
  digestive tolerance: Fair digestive tolerance
  systemic tolerance: Very good systemic tolerance
[11]; GAU... Albert, + altizide, spironolactone, floating specks, headaches, dizziness, ear-buzzing
  functional signs: Improvement of the functional signs
[11]; [17]
  blood pressure after treatment, sitting: 18/10
  blood pressure after treatment, standing: 17/9
[11]; SUF... Auguste, 5 x 400 mg daily 30 days + furosemide 40 mg 3 times a week, potassium chloride, salt-free diet, prior 24/13
  blood pressure after treatment, recumbent: 18/10
[11]; SUF... Auguste, + furosemide
  digestive and systemic tolerance: Very good digestive and systemic tolerance
[11]; SUF... Auguste, + furosemide, floating specks, headaches, ear-buzzing
  functional signs: Marked decrease of the functional signs
[11]; TRU... Yves, 4 x 400 mg daily + α-methyldopa 4 x 250 mg daily, one month, after α-methyldopa alone 20/11
  blood pressure after treatment, standing: 18/9
[11]; [18]
  blood pressure after treatment, recumbent: 19/101/2
  blood pressure after treatment, sitting: 19/10
[11]; TRU... Yves, + α-methyldopa, particularly the headaches
  functional signs: Marked decrease of the functional signs
[11]; [19]
  duration of the action: three-fold
  reduction of the dosage of compound: about 50%
[11]; combination with diuretics
  efficiency of combination with diuretics: particularly efficient combination
[11]; combined with other anti-hypertensive materials currently used
  safety of combination: safely be combined
[12]; BLA... Isaac
  systemic tolerance: Very good systemic tolerance
  taste on intake of the tablet: Bitter taste
[12]; BLA... Isaac, 6 then 4 tablets of 400 mg daily, 15 days each, prior 20/13
  blood pressure after treatment, recumbent: 19/1
[12]; BLA... Isaac, 6 then 4 tablets of 400 mg daily, 15 days each, prior 20/121/2
  blood pressure after treatment, sitting: 19/10
[12]; BLA... Isaac, 6 then 4 tablets of 400 mg daily, 15 days each, prior 191/2/10
  blood pressure after treatment, standing: 141/2/10
[12]; PER... Robert
  tolerance: Excellent tolerance
[12]; PER... Robert, 2, 4, then 6 tablets of 400 mg per day, 28 days, prior 21/12
  blood pressure after treatment, sitting: 161/2/10
[12]; PER... Robert, 2, 4, then 6 tablets of 400 mg per day, 28 days, prior 201/2/12
  blood pressure after treatment, standing: 17/10
[12]; PER... Robert, 2, 4, then 6 tablets of 400 mg per day, 28 days, prior 211/2/12
  blood pressure after treatment, recumbent: 15/10
[12]; PER... Robert, headaches, ear-buzzing
  functional signs: Disappearance of the functional signs
[12]; after interruption of administration
  return of blood pressure to former levels after interruption: 3 to 4 days
[12]; alone, 300 mg to 5 g daily
  onset of the depression: within a few hours or a few days
  troublesome orthostatic hypotension induced fits of faintness: None of the subjects
[12]; alone, 300 mg to 5 g daily, standing
  blood pressure in standing position: more highly depressed, becoming close to normal or even attaining the normal value
[12]; disappear when ingested in the middle of a meal and/or dosage decreased
  side-effect: a few cases of gastric pains and nausea
[12]; fraction of patients, alone, 300 mg to 5 g daily, recumbent
  patients with moderate depression: One-fourth
[12]; [20]
  hypertensive subjects with substantial depression of the blood pressure: more than half
  subjects non-influenced: Less than one-fourth
[12]; [21]
  diastolic pressure depression in subjects with substantial depression: > 2 cm of mercury
  systolic pressure depression in subjects with substantial depression: > 4 cm of mercury
[12]; [22]
  diastolic pressure depression in patients with moderate depression: about 1 cm
  systolic pressure depression in patients with moderate depression: about 2 cm
[12]; oral, 200 mg to 5 g daily
  action: rapid but gradual action
  toxicity and tolerance: free from toxicity, well tolerated
[12]; particularly with respect to the diastolic pressure
  effects on blood pressure versus diuretic drugs, α-methyldopa and other hypotensive agents: much more rapid and much more positive
[12]; [23]
  effect on the diastolic pressure in Man: well established
  efficiency in Man: excellent efficiency
  toxicity in Man: free from toxicity

## C[C@](N)(Cc1ccc(O)c(O)c1)C(=O)O [α-methyldopa]
[13]; 2, 4, then 6 tablets of 250 mg per day, one month, prior 22/12
  blood pressure after treatment with α-methyldopa, standing: 20/11
[13]; 2, 4, then 6 tablets of 250 mg per day, one month, prior 23/12
  blood pressure after treatment with α-methyldopa, recumbent: 21/111/2
[13]; 2, 4, then 6 tablets of 250 mg per day, one month, prior 23/111/2
  blood pressure after treatment with α-methyldopa, sitting: 21/111/2
[13]; α-methyldopa alone, headaches, dizziness
  functional signs: Slight decrease of the functional signs
